Results published in article PMC10787407, “Regulation of polysaccharide in Wu‐tou decoction on intestinal microflora and pharmacokinetics of small molecular compounds in AIA rats” (Chinese Medicine, 2024).

Assay: PK study of SM components in plasma of AIA rats by UPLC-MS/MS (MG vs MPS group)
Settings: for AUC 0-t / AUC 0-∞ / C max / T max / t 1/2 / AUC(0-inf) / Cmax / Tmax / half-life: then oral SM 39.2 g crude drug/kg, plasma, mean ± SEM; for Absorption under the intervention of PS: MPS vs MG group; for Cmax: C max; for Tmax: T max
[1] = MG group: AIA rats, saline 21 days
[2] = MPS group: AIA rats, oral PS 9.8 g crude drug/kg/day 21 days
[3] = MPS group compared with the MG group, AIA rats
[4] = Sprague-Dawley, rat, po, 39.2 g/kg/day, AUC 0-t, MG group: AIA rats, saline 21 days
[5] = Sprague-Dawley, rat, po, 39.2 g/kg/day, AUC 0-t, MPS group: AIA rats, oral PS 9.8 g crude drug/kg/day 21 days
[6] = Sprague-Dawley, rat, po, 39.2 g/kg/day, MG group: AIA rats, saline 21 days
[7] = Sprague-Dawley, rat, po, 39.2 g/kg/day, MPS group: AIA rats, oral PS 9.8 g crude drug/kg/day 21 days
[8] = Sprague-Dawley, rat, po, 39.2 g/kg/day, t 1/2, MG group: AIA rats, saline 21 days
[9] = Sprague-Dawley, rat, po, 39.2 g/kg/day, t 1/2, MPS group: AIA rats, oral PS 9.8 g crude drug/kg/day 21 days

Protocol: In the PK study, 12 SD rats were divided into model group (MG group) and model + polysaccharide group (MPS group). Rats in the MPS group were given PS (9.8 g crude drug/kg/day) by oral administration, while rats in the MG group received the same amount of saline. After continuous administration for 21 days, rats in both groups were given SM (39.2 g crude drug/kg/day), and two groups of rats were subjected to a PK study.
The supernatant was collected and dried with N2, redissolved with 100 μL methanol, and centrifuged again after 10 min centrifugation at 4 °C, 13000 rpm. Then the supernatant was collected for UPLC-MS /MS analysis.
The Shimadzu UPLC-MS/MS system was used for the PK study. […] The multiple reaction monitoring (MRM) mode was used both in positive and negative mode. The MS parameters were as follows: flow rate of heating gas 10 L/min, flow rate of drying gas 10 L/min, flow rate of atomizing gas 3 L/min, interfacial temperature 300 ℃, DL temperature 250 ℃.
Separation was performed using a Waters ACQUITY UPLC BEH C18 column (2.1 mm × 100 mm, 1.7 μm). The mobile phase was 0.1% formic acid water (v/v) (A) and acetonitrile (B).

SMILES | AUC 0-t [1] | AUC 0-∞ [1] | C max [1] | T max [1] | t 1/2 [1] | AUC 0-t [2] | AUC 0-∞ [2] | C max [2] | T max [2] | t 1/2 [2] | Absorption under the intervention of PS (AIA rats) | AUC 0-t [5] | AUC(0-inf) [6] | AUC(0-inf) [7] | Cmax [6] | Cmax [7] | Tmax [6] | Tmax [7] | half-life [8] | half-life [9] | also measured
CCN1C[C@]2(COC)[C@H](O)C[C@H](OC)[C@@]34[C@@H]5C[C@@]6(O)[C@H](OC(=O)c7ccccc7)[C@@H]5[C@@](O)([C@@H]([C@H](OC)[C@H]23)[C@@H]14)[C@@H](O)[C@@H]6OC [Benzoylaconine] | 0.764 ± 0.082 ng·h/mL | 1.015 ± 0.158 ng·h/mL | 0.548 ± 0.178 ng/mL | 0.125 ± 0.072 h | 7.430 ± 5.148 h | 1.064 ± 0.136 ng·h/mL | 1.202 ± 0.128 ng·h/mL | 0.720 ± 0.116 ng/mL | 0.083 ± 0.001 h | 3.875 ± 1.842 h | – | – | – | – | – | – | – | – | – | – | –
O=C(/C=C/c1ccc(O)cc1)c1ccc(O)cc1O [Isoliquiritigenin] | – | – | – | – | – | – | – | – | – | – | increased | 9.47 ± 1.45 ng·h/mL | 9.61 ± 1.6 ng·h/mL | 10.5 ± 1.27 ng·h/mL | 4 ± 0.545 ng/mL | 5.42 ± 0.422 ng/mL | 0.083 ± 0.001 h | 0.167 ± 0.083 h | 3.12 ± 0.571 h | 3.87 ± 0.889 h | Change of C max after oral PS [3]: significantly increased; AUC 0-t [4]: 8.76 ± 1.42 ng·h/mL
C[C@]12C[C@@H](O)[C@@H]3C[C@@]1(O[C@@H]1O[C@H](CO)[C@@H](O)[C@H](O)[C@H]1O)[C@@]3(COC(=O)c1ccccc1)C(=O)O2 [Albiflorin] | 424.990 ± 55.691 ng·h/mL | 458.506 ± 69.994 ng·h/mL | 287.831 ± 42.177 ng/mL | 0.250 ± 0.001 h | 2.488 ± 0.458 h | 644.268 ± 174.084 ng·h/mL | 698.946 ± 175.788 ng·h/mL | 306.851 ± 57.880 ng/mL | 0.139 ± 0.072 h | 1.669 ± 0.080 h | increased | – | – | – | – | – | – | – | – | – | Change of AUC 0-t after oral PS [3]: increased; Change of AUC 0-∞ after oral PS [3]: increased
COc1ccc(-c2coc3cc(O[C@@H]4O[C@H](CO)[C@@H](O)[C@H](O)[C@H]4O)ccc3c2=O)cc1O [Calycosin-7-glycoside] | 17.473 ± 2.858 ng·h/mL | 18.097 ± 2.629 ng·h/mL | 17.607 ± 2.640 ng/mL | 0.110 ± 0.062 h | 2.342 ± 0.959 h | 15.987 ± 2.778 ng·h/mL | 16.625 ± 2.476 ng·h/mL | 15.506 ± 2.308 ng/mL | 0.083 ± 0.001 h | 2.113 ± 0.779 h | – | – | – | – | – | – | – | – | – | – | –
CC1(C)[C@@H](O)CC[C@]2(C)[C@H]3C(=O)C=C4[C@@H]5C[C@@](C)(C(=O)O)CC[C@]5(C)CC[C@@]4(C)[C@]3(C)CC[C@@H]12 [Glycyrrhetinic acid] | – | – | – | – | – | – | – | – | – | – | – | 30500 ng·h/mL | 32900 ng·h/mL | 34500 ng·h/mL | 7830 ± 283 ng/mL | 11600 ng/mL | 2 ± 0.001 h | 2 ± 0.001 h | 10.7 ± 3.72 h | 10.8 ± 1.96 h | AUC 0-t [4]: 28800 ng·h/mL
COc1ccc(-c2coc3cc(O)ccc3c2=O)cc1 [Formononetin] | 15.278 ± 1.823 ng·h/mL | – | – | – | – | – | – | – | – | – | decreased | 12.3 ± 1.98 ng·h/mL | 17.5 ± 1.69 ng·h/mL | 13.6 ± 1.93 ng·h/mL | 7.39 ± 1.16 ng/mL | 4.5 ± 0.902 ng/mL | 0.083 ± 0.001 h | 0.25 ± 0.001 h | 4.27 ± 0.406 h | 3.76 ± 0.557 h | Change of C max after oral PS [3]: reduced
O=C1C[C@@H](c2ccc(O)cc2)Oc2cc(O)ccc21 [Liquiritigenin] | 48.549 ± 6.497 ng·h/mL | 49.404 ± 6.315 ng·h/mL | 25.519 ± 7.560 ng/mL | 0.139 ± 0.079 h | 1.841 ± 0.242 h | 47.195 ± 4.360 ng·h/mL | 47.548 ± 4.374 ng·h/mL | 23.367 ± 4.695 ng/mL | 0.083 ± 0.001 h | 1.448 ± 0.025 h | – | – | – | – | – | – | – | – | – | – | –
